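Growth conditions: 96-well plates. Treatment: test compound, 48 hours, 5 concentrations. Analysis: linear interpolation between bracketing concentrations; unreached endpoints set to highest concentration. GI50: concentration for 50% inhibition of growth.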 The source made the active and inactive calls. Rule as the data show it: active = GI50 up to about 1.1 µM and inactive = higher.
How the values were obtained:
Test in all cases: DTP human tumour cell line panel, 48 h
[1] = test system: 786-0
[2] = test system: COLO 205
[3] = test system: HCC 2998
[4] = test system: HCT-15
[5] = test system: HL-60
[6] = test system: HT-29
[7] = test system: LOX IMVI
[8] = test system: NCI-H226
[9] = test system: NCI-H23
[10] = test system: NCI-H522
[11] = test system: OVCAR-3
[12] = test system: OVCAR-4
[13] = test system: SF-268
[14] = test system: SF-295
[15] = test system: SK-MEL-28
[16] = test system: SK-MEL-2
[17] = test system: SK-OV-3
[18] = test system: SW-620
[19] = test system: UACC-62
[20] = test system: HOP-92

Measured: GI50

Cc1[nH]c2c(C)ccc(C)c2c1CC(=O)O
53.5 µM: [4]
inactive: [1] 43.9 µM | [2] 40 µM | [3] 29.6 µM | [5] 5.43 µM | [6] 43.3 µM | [7] 36.5 µM | [8] 33.7 µM | [9] 51.8 µM | [10] 24.2 µM | [11] 31.3 µM | [12] 38.1 µM | [13] 44.2 µM | [14] 50.1 µM | [15] 61.8 µM | [16] 18.2 µM | [17] > 100 µM | [18] 42.9 µM | [19] 43.1 µM

COc1ccc(-c2onc(-c3ccc([N+](=O)[O-])cc3)c2C2=NCCCN2)cc1
inactive: [1] > 100 µM | [2] 43.6 µM | [3] > 100 µM | [5] 36.9 µM | [6] 40.3 µM | [7] 51.9 µM | [8] 38.8 µM | [9] > 100 µM | [10] 51.3 µM | [11] 26.5 µM | [12] > 100 µM | [13] > 100 µM | [14] 53.2 µM | [15] 38.4 µM | [16] > 100 µM | [18] > 100 µM | [19] > 100 µM
> 100 µM: [4]

Cn1c(Nc2ccccc2)c(/C=N\c2ccccc2)c(=O)n(C)c1=O
inactive: [1] 65.3 µM | [5] > 100 µM | [20] 41.7 µM | [6] 47.9 µM | [7] 36.4 µM | [9] 82.6 µM | [11] > 100 µM | [12] > 100 µM | [13] 45.7 µM | [14] 89.5 µM | [15] > 100 µM | [16] > 100 µM | [17] 62.1 µM | [18] > 100 µM | [19] > 100 µM

Cc1ccc(CC2(OCCN(C)C)CCC(C(C)(C)C)CC2)cc1 (configuration not stated)
active: [5] 0.767 µM
3.86 µM: [4]
inactive: [1] 1.99 µM | [2] 2.05 µM | [3] 1.98 µM | [6] 2.13 µM | [7] 1.57 µM | [8] 5.78 µM | [9] 10.7 µM | [10] 3.53 µM | [11] 9.68 µM | [12] 4.16 µM | [13] 11.5 µM | [14] 5.22 µM | [15] 1.88 µM | [16] 1.97 µM | [17] 8.17 µM | [18] 2.25 µM | [19] 2.15 µM

C=C1C2Oc3ccccc3C1N(c1ccccc1)O2 (configuration not stated)
inactive: [1] 41.5 µM | [2] 48.5 µM | [3] 31 µM | [5] 30.3 µM | [6] 23 µM | [7] 13.7 µM | [8] 37.9 µM | [9] > 10 µM | [10] 27.2 µM | [11] 32.3 µM | [12] 20 µM | [13] 28.8 µM | [14] 23.1 µM | [15] 58.1 µM | [16] 9.14 µM | [17] 64.3 µM | [18] 34.8 µM
20.8 µM: [4]

CNCCN[C@@H]1c2cc3c(cc2[C@@H](c2cc(OC)c(O)c(OC)c2)[C@H]2C(=O)OC[C@@H]21)OCO3
active: [1] 0.144 µM | [3] 0.474 µM | [5] < 0.016 µM | [6] 0.494 µM | [7] 0.153 µM | [8] 0.0946 µM | [9] 0.185 µM | [10] 0.251 µM | [11] 0.968 µM | [13] 0.258 µM | [14] 0.0973 µM | [15] 0.665 µM | [16] 0.44 µM | [17] 0.264 µM | [18] 0.269 µM | [19] 0.132 µM
3.21 µM: [4]
inactive: [2] 1.23 µM | [12] 5.3 µM

CCSc1cc(C(=O)OC)c2n(c1=O)CCCC2
> 100 µM: [4]
inactive: [1] > 100 µM | [2] > 100 µM | [5] > 100 µM | [6] > 100 µM | [7] > 100 µM | [8] > 100 µM | [9] > 100 µM | [10] > 100 µM | [12] > 100 µM | [13] > 100 µM | [14] > 100 µM | [15] > 100 µM | [16] > 100 µM | [17] > 100 µM | [18] > 100 µM | [19] > 100 µM

COc1ccc(OC)c(C(=O)c2cccc(C(=O)c3cc(OC)ccc3OC)n2)c1
inactive: [1] 68.9 µM | [2] 32.1 µM | [3] 46.9 µM | [5] 18.5 µM | [6] 35.7 µM | [7] 25.5 µM | [8] 27.3 µM | [9] 20 µM | [10] 29.8 µM | [12] > 100 µM | [13] 63.4 µM | [14] 29.9 µM | [15] 41 µM | [16] 23 µM | [17] 46.1 µM | [18] 39.6 µM | [19] 31.1 µM
33.1 µM: [4]

CCCCCC/C=C\CCCCCCCCCc1c(O)c(OC)cc(O)c1CN(C)C
inactive: [1] 1.7 µM | [2] 1.92 µM | [5] 1.6 µM | [6] 4.44 µM | [7] 3.2 µM | [8] 17 µM | [9] 8.61 µM | [10] 1.64 µM | [11] 6.35 µM | [12] 1.47 µM | [13] > 10 µM | [14] 5.38 µM | [15] 13.2 µM | [16] 20.7 µM | [17] 14.9 µM | [18] 2.93 µM | [19] 10.6 µM
3.01 µM: [4]

CCOC(=O)C(=[N+]=[N-])C(=O)CN1C(=O)C2CC(C)=C(C)CC2C1O (configuration not stated)
inactive: [1] > 100 µM | [2] > 100 µM | [3] > 100 µM | [5] > 100 µM | [6] > 100 µM | [7] > 100 µM | [8] 68.2 µM | [9] > 100 µM | [10] > 100 µM | [11] > 100 µM | [13] > 100 µM | [14] > 100 µM | [15] > 100 µM | [16] > 100 µM | [18] > 100 µM | [19] > 100 µM

O=c1c2ccc(S(=O)(=O)c3ccc4c(=O)n5c6ccccc6nc5c5cccc3c45)c3cccc(c32)c2nc3ccccc3n12
93.5 µM: [4]
inactive: [1] 29.5 µM | [2] > 100 µM | [3] > 100 µM | [6] > 100 µM | [7] > 100 µM | [8] 41.6 µM | [9] 96.6 µM | [10] 27.7 µM | [11] > 100 µM | [13] 33.5 µM | [14] 15.3 µM | [15] > 100 µM | [16] 21.3 µM | [17] 5.26 µM | [19] 45.5 µM

CCC(=O)NCCc1c2c3c(ccnc3c3ncsc13)-c1ccccc1N2 [KUANONIAMINE C]
2.51 µM: [4]
inactive: [2] 1.45 µM | [9] 1.92 µM | [10] 2.62 µM | [11] 10.5 µM | [12] 30.4 µM | [13] 1.45 µM | [15] 2.56 µM | [16] 43.2 µM | [17] 12.2 µM | [18] 1.18 µM | [19] 1.63 µM
active: [1] 0.791 µM | [3] 0.692 µM | [5] 0.845 µM | [6] 0.541 µM | [7] 1.05 µM | [8] 0.91 µM | [14] 1.12 µM

Source: ChEMBL document CHEMBL1201862, “PubChem BioAssay data set” (2004)
